Activity calls are given as the source filed them. The calls are words filed in the database; no cut-off is given here.
What follows are compounds tested on Mus musculus (assay: Antiobesity activity in mouse assessed as reduction in utero fat at 0.04% administered every day through diet for 10 days measured after day 10 relative to control).
Assay type: functional

SMILES	Activity
Cc1ccc(/C=C/c2cc(C(C)(C)C)c(OCC(O)CNC(C)C)c(C(C)(C)C)c2)cc1 (centres undefined)	inactive
CC(C)NCC(O)COc1c(C(C)(C)C)cc(/C=C/c2ccc(C(C)(C)C)cc2)cc1C(C)(C)C (centres undefined)	inactive
CC(C)NCC(O)COc1c(C(C)(C)C)cc(/C=C/c2ccc3c(c2)OCO3)cc1C(C)(C)C (centres undefined)	inactive
CC(C)NCC(O)COc1c(C(C)(C)C)cc(/C=C/c2ccccc2Cl)cc1C(C)(C)C (centres undefined)	inactive
CCN(CC)CCCNCC(O)COc1c(C(C)(C)C)cc(/C=C/c2ccccc2)cc1C(C)(C)C (centres undefined)	inactive
CCc1cc(/C=C/c2ccccc2C(F)(F)F)cc(CC)c1OCC(O)CNC(C)C (centres undefined)	20%
CCC(C)NCC(O)COc1c(C(C)(C)C)cc(/C=C/c2ccccc2)cc1C(C)(C)C (centres undefined)	23%
CC(C)NCC(O)COc1c(C(C)C)cc(/C=C/c2ccccc2)cc1C(C)C (centres undefined)	20%
COc1ccc(-c2cc(C(C)(C)C)c(OCC(O)CNC(C)C)c(C(C)(C)C)c2)cc1 (centres undefined)	inactive
CC(C)(C)c1cc(/C=C/c2ccccc2)cc(C(C)(C)C)c1OCC(O)CNCCO (centres undefined)	inactive
Cc1ccccc1/C=C/c1cc(C(C)(C)C)c(OCC(O)CNC(C)C)c(C(C)(C)C)c1 (centres undefined)	42%
Cc1ccc(/C=C/c2cc(C(C)(C)C)c(OCC(O)CNC(C)C)c(C(C)(C)C)c2)cc1C (centres undefined)	inactive
CC(C)NCC(O)COc1c(C(C)(C)C)cc(/C=C/c2ccc(F)cc2)cc1C(C)(C)C (centres undefined)	inactive
CC(C)NCC(O)COc1ccc([S+]([O-])c2ccc(Cl)cc2)cc1 (centres undefined)	inactive
CC(C)NCC(O)COc1ccc(C#Cc2ccccc2)cc1 (centres undefined)	28%
CC(C)(C)NCC(O)COc1c(C(C)(C)C)cc(/C=C/c2ccccc2)cc1C(C)(C)C (centres undefined)	20%
CC(C)CNCC(O)COc1c(C(C)(C)C)cc(/C=C/c2ccccc2)cc1C(C)(C)C (centres undefined)	inactive

SMILES	Activity
CC(C)NCC(O)COc1c(C(C)(C)C)cc(/C=C/c2ccccc2)cc1C(C)(C)C (single isomer, unassigned; (+))	inactive
CC(C)(C)c1cc(/C=C/c2ccccc2)cc(C(C)(C)C)c1OCC(O)CNC1CCCCC1 (centres undefined)	24%
CC(C)NCC(O)COc1ccc(-c2ccccc2)cc1 (centres undefined)	24%
CC(C)NCC(O)COc1c(C(C)(C)C)cc(C#Cc2ccccc2)cc1C(C)(C)C.O=C(O)/C=C\C(=O)O (centres undefined)	25%
CN(C)CCNCC(O)COc1c(C(C)(C)C)cc(/C=C/c2ccccc2)cc1C(C)(C)C (centres undefined)	inactive
CCC(C)c1cc(/C=C/c2ccccc2)cc(C(C)CC)c1OCC(O)CNC(C)C (centres undefined)	inactive
COc1ccc(/C=C/c2cc(C(C)(C)C)c(OCC(O)CNC(C)(C)C)c(C(C)(C)C)c2)cc1Br (centres undefined)	inactive
CCCCN(CCCC)CCCNCC(O)COc1c(C(C)(C)C)cc(/C=C/c2ccccc2)cc1C(C)(C)C.O=C(O)/C=C\C(=O)O (centres undefined)	25%
Cc1cc(/C=C/c2ccccc2)cc(C(C)(C)C)c1OCC(O)CNC(C)C (centres undefined)	inactive
Cc1cc(/C=C/c2ccccc2)cc(C)c1OCC(O)CNC(C)C (centres undefined)	31%
CC(C)NCC(O)COc1c(C(C)(C)C)cc(/C=C/c2ccc([N+](=O)[O-])cc2)cc1C(C)(C)C (centres undefined)	45%
CCNCC(O)COc1c(C(C)(C)C)cc(/C=C/c2ccccc2)cc1C(C)(C)C (centres undefined)	24%
CC(C)NCC(O)COc1c(C(C)(C)C)cc(Sc2ccc(Cl)cc2)cc1C(C)(C)C (centres undefined)	inactive
CCCCNCC(O)COc1c(C(C)(C)C)cc(/C=C/c2ccccc2)cc1C(C)(C)C (centres undefined)	25%
CC(C)(C)c1cc(/C=C/c2ccccc2)cc(C(C)(C)C)c1OCC(O)CNCCNC(=O)Nc1ccccc1 (centres undefined)	inactive
CC(C)NCC(O)COc1c(C(C)(C)C)cc(Oc2ccc(Cl)cc2)cc1C(C)(C)C (centres undefined)	inactive
CC(C)NCC(O)COc1ccc(S(=O)(=O)c2ccc(Cl)cc2)cc1 (centres undefined)	inactive
